Reference: patent US11802111B2, “Cyclobutyl amide monoacylglycerol lipase modulators” (Janssen Pharmaceutica NV, priority 2020, dated 2023)

These compounds were tested against human MGL from HeLa cells (Homo sapiens (Human), UniProt Q99685) (assay: MGL in vitro activity assay ([glycerol-1,3-3H]-oleoyl glycerol hydrolysis, activated carbon filtration)). Details: 300 nM [Glycerol-1,3-3H]-oleoyl glycerol, one hour.
Sequence of human MGL from HeLa cells (Q99685 whole entry): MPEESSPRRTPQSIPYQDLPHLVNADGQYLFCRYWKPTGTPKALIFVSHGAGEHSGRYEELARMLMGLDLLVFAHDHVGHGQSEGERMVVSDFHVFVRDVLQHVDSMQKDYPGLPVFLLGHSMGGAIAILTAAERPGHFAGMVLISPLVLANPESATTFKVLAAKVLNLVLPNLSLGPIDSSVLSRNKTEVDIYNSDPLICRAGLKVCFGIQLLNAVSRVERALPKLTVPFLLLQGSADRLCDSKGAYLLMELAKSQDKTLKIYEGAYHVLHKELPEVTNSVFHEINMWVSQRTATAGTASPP
Type: biochemical
Method in brief: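 Endogenous human MGL in HeLa cells/homogenates incubated 1 h with test compounds and 300 nM [glycerol-1,3-3H]-oleoyl glycerol. Released 3H-glycerol passing an activated carbon filter counted as activity; screening at 10 μM compound, top IC50 concentration set empirically.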
`Cc1cc(Cl)ccc1OC1CCC2(CC1)CN(C(=O)[C@H]1C[C@@](C)(O)C1)C2` [Example 412, (7-(4-Chloro-2-methylphenoxy)-2-azaspiro[3.5]nonan-2-yl)((1s,3s)-3-hydroxy-3-methylcyclobutyl)methanone] showed an IC50 of 0.0014 µM. With `Cc1cnc(OC2CCC3(CC2)CN(C(=O)[C@H]2C[C@@](C)(O)C2)C3)c(F)c1` [Example 432, (7-((3-Fluoro-5-methylpyridin-2-yl)oxy)-2-azaspiro[3.5]nonan-2-yl)((1s,3s)-3-hydroxy-3-methylcyclobutyl)methanone] the IC50 was 0.071 µM. In the case of `COC1(Cc2ccccc2)CC2(CN(C(=O)[C@H]3C[C@@](C)(O)C3)C2)C1` [Example 270, (6-Benzyl-6-methoxy-2-azaspiro[3.3]heptan-2-yl)((1s,3s)-3-hydroxy-3-methylcyclobutyl)methanone], the IC50 is reported as 3.29 µM. Work on `CC(C)c1cccc([C@@H]2CCC3(C2)CN(C(=O)[C@H]2C[C@@](C)(O)C2)C3C)c1` (relative stereo) [Example 318, ((1s,3*S)-3-Hydroxy-3-methylcyclobutyl)((6*R)-6-(3-isopropylphenyl)-1-methyl-2-azaspiro[3.4]octan-2-yl)methanone] yielded an IC50 of 0.048 µM. `CC(C)c1ccc2ccn(CC3CC4(C3)CN(C(=O)[C@H]3C[C@@](C)(O)C3)C4)c2n1` [Example 290, ((1s,3s)-3-Hydroxy-3-methylcyclobutyl)(6-((6-isopropyl-1H-pyrrolo[2,3-b]pyridin-1-yl)methyl)-2-azaspiro[3.3]heptan-2-yl)methanone] showed an IC50 of 0.016 µM. Compound `C[C@@H](c1ccc2cnn(C)c2c1)C1CC2(C1)CN(C(=O)[C@H]1C[C@@](C)(O)C1)C2` (stereo in doubt) [Example 314, ((1s,3*S)-3-Hydroxy-3-methylcyclobutyl)(6-((*R)-1-(1-methyl-1H-indazol-6-yl)ethyl)-2-azaspiro[3.3]heptan-2-yl)methanone] has an IC50 of 0.13 µM. Compound `CC(C)(C)c1ccnc(C2CCC3(CC2)CN(C(=O)[C@H]2C[C@@](C)(O)C2)C3)n1` [Example 378, (7-(4-(tert-Butyl)pyrimidin-2-yl)-2-azaspiro[3.5]nonan-2-yl)((1s,3s)-3-hydroxy-3-methylcyclobutyl)methanone] has an IC50 of 0.037 µM. `C[C@]1(O)C[C@@H](C(=O)N2CC3(CCC(c4ccc(F)c(C5CC5)c4)C3)C2)C1` (mixture of isomers) [Example 108, (rac)-(6-(3-Cyclopropyl-4-fluorophenyl)-2-azaspiro[3.4]octan-2-yl)((1s,3s)-3-hydroxy-3-methylcyclobutyl)methanone] was tested, and the IC50 was 0.014 µM. Work on `Cc1ccc(C2CC3(C2)CN(C(=O)[C@H]2C[C@@](C)(O)C2)C3)cc1C(F)(F)F` [Example 6, ((1s,3s)-3-Hydroxy-3-methylcyclobutyl)(6-(4-methyl-3-(trifluoromethyl)phenyl)-2-azaspiro[3.3]heptan-2-yl)methanone] yielded an IC50 of 0.031 µM. Compound `C[C@]1(O)C[C@@H](C(=O)N2CC3(CCC(c4ccc5c(c4)CCC5)CC3)C2)C1` [Example 127, (7-(2,3-Dihydro-1H-inden-5-yl)-2-azaspiro[3.5]nonan-2-yl)((1s,3s)-3-hydroxy-3-methylcyclobutyl)methanone] has an IC50 of 0.014 µM. With `COc1cccc(C2CCC3(CC2)CN(C(=O)[C@H]2C[C@@](C)(O)C2)C3)c1Cl` [Example 367, (7-(2-Chloro-3-methoxyphenyl)-2-azaspiro[3.5]nonan-2-yl)((1s,3s)-3-hydroxy-3-methylcyclobutyl)methanone] the IC50 was 0.04 µM. Compound `CC(C)c1ccc(C2CCC3(C2)CN(C(=O)[C@H]2C[C@@](C)(O)C2)C3)cc1` (mixture of isomers) [Example 35, (rac)-((1s,3s)-3-Hydroxy-3-methylcyclobutyl)(6-(4-isopropylphenyl)-2-azaspiro[3.4]octan-2-yl)methanone] has an IC50 of 0.015 µM. Compound `Cc1ccc(C(F)(F)F)cc1C1CCC2(C1)CN(C(=O)[C@H]1C[C@@](C)(O)C1)C2` (mixture of isomers) [Example 78, (rac)-((1s,3s)-3-Hydroxy-3-methylcyclobutyl)(6-(2-methyl-5-(trifluoromethyl)phenyl)-2-azaspiro[3.4]octan-2-yl)methanone] has an IC50 of 0.011 µM. `Cc1ccc(Cl)c(OC2CCC3(CC2)CN(C(=O)[C@H]2C[C@@](C)(O)C2)C3)n1` [Example 435, (7-((3-Chloro-6-methylpyridin-2-yl)oxy)-2-azaspiro[3.5]nonan-2-yl)((1s,3s)-3-hydroxy-3-methylcyclobutyl)methanone] was tested, and the IC50 was 0.0084 µM. `C[C@]1(O)C[C@@H](C(=O)N2CC3(CC(Cc4ccc(OC(F)(F)F)cc4)C3)C2)C1` [Example 220, ((1s,3s)-3-Hydroxy-3-methylcyclobutyl)(6-(4-(trifluoromethoxy)benzyl)-2-azaspiro[3.3]heptan-2-yl)methanone] gave an IC50 of 0.0011 µM. Work on `Cc1cc(CC2CC3(C2)CN(C(=O)[C@H]2C[C@@](C)(O)C2)C3)cc2c1cnn2C` [Example 300, (6-((1,4-Dimethyl-1H-indazol-6-yl)methyl)-2-azaspiro[3.3]heptan-2-yl)((1s,3s)-3-hydroxy-3-methylcyclobutyl)methanone] yielded an IC50 of 0.02 µM. Compound `Cc1nc(OC2CC3(CCN(C(=O)[C@H]4C[C@@](C)(O)C4)CC3)C2)ccc1C(F)(F)F` [Example 482, ((1s,3s)-3-Hydroxy-3-methylcyclobutyl)(2-((6-methyl-5-(trifluoromethyl)pyridin-2-yl)oxy)-7-azaspiro[3.5]nonan-7-yl)methanone] has an IC50 of 0.061 µM. In the case of `C[C@]1(O)C[C@@H](C(=O)N2CC3(CCC(c4cc5n(n4)CCCC5)C3)C2)C1` (mixture of isomers) [Example 331, (rac)-((1s,3s)-3-Hydroxy-3-methylcyclobutyl)(6-(4,5,6,7-tetrahydropyrazolo[1,5-a]pyridin-2-yl)-2-azaspiro[3.4]octan-2-yl)methanone], the IC50 is reported as 1.02 µM. With `Cc1ccc(Cl)c(OC2CCC3(CC2)CN(C(=O)[C@H]2C[C@@](C)(O)C2)C3)c1` [Example 410, (7-(2-Chloro-5-methylphenoxy)-2-azaspiro[3.5]nonan-2-yl)((1s,3s)-3-hydroxy-3-methylcyclobutyl)methanone] the IC50 was 0.0028 µM. `CC(C)c1ccccc1OC1CCC2(CC1)CN(C(=O)[C@H]1C[C@@](C)(O)C1)C2` [Example 265, ((1s,3s)-3-Hydroxy-3-methylcyclobutyl)(7-(2-isopropylphenoxy)-2-azaspiro[3.5]nonan-2-yl)methanone] gave an IC50 of 0.037 µM. Work on `C[C@]1(O)C[C@@H](C(=O)N2CC3(CC[C@H](c4ccc(C(F)(F)F)cc4)C3)C2)C1` (stereo in doubt) [Example 57, ((1s,3*R)-3-Hydroxy-3-methylcyclobutyl)((*S)-6-(4-(trifluoromethyl)phenyl)-2-azaspiro[3.4]octan-2-yl)methanone] yielded an IC50 of 0.024 µM. With `C[C@]1(O)C[C@@H](C(=O)N2CC3(CC(Cc4ccc(OC5CC5)cc4)C3)C2)C1` [Example 272, (6-(4-Cyclopropoxybenzyl)-2-azaspiro[3.3]heptan-2-yl)((1s,3s)-3-hydroxy-3-methylcyclobutyl)methanone] the IC50 was 0.0081 µM. Work on `Cc1cc(C(F)(F)F)cnc1OC1CC2(CCN(C(=O)[C@H]3C[C@@](C)(O)C3)CC2)C1` [Example 481, ((1s,3s)-3-Hydroxy-3-methylcyclobutyl)(2-((3-methyl-5-(trifluoromethyl)pyridin-2-yl)oxy)-7-azaspiro[3.5]nonan-7-yl)methanone] yielded an IC50 of 0.015 µM. `Cc1cc([C@@H]2CCC3(C2)CN(C(=O)[C@H]2C[C@@](C)(O)C2)C3)ccc1OC(F)F` (stereo in doubt) [Example 73, ((*R)-6-(4-(Difluoromethoxy)-3-methylphenyl)-2-azaspiro[3.4]octan-2-yl)((1s,3*S)-3-hydroxy-3-methylcyclobutyl)methanone] was tested, and the IC50 was 0.0081 µM. Compound `CC(C)(C)c1cc(C2CCC3(CC2)CN(C(=O)[C@H]2C[C@@](C)(O)C2)C3)ccn1` [Example 139, (7-(2-(tert-Butyl)pyridin-4-yl)-2-azaspiro[3.5]nonan-2-yl)((1s,3s)-3-hydroxy-3-methylcyclobutyl)methanone] has an IC50 of 0.167 µM. Work on `Cc1nc(OC2CCC3(CC2)CN(C(=O)[C@H]2C[C@@](C)(O)C2)C3)ccc1C(F)(F)F` [Example 448, ((1s,3s)-3-Hydroxy-3-methylcyclobutyl)(7-((6-methyl-5-(trifluoromethyl)pyridin-2-yl)oxy)-2-azaspiro[3.5]nonan-2-yl)methanone] yielded an IC50 of 0.0024 µM. Compound `C[C@]1(O)C[C@@H](C(=O)N2CC3(CCC(c4ccccc4)CC3)C2)C1` [Example 37, ((1s,3s)-3-Hydroxy-3-methylcyclobutyl)(7-phenyl-2-azaspiro[3.5]nonan-2-yl)methanone] has an IC50 of 0.058 µM. `COc1cccc(C2CCC3(CC2)CN(C(=O)[C@H]2C[C@@](C)(O)C2)C3)c1` [Example 131, ((1s,3s)-3-Hydroxy-3-methylcyclobutyl)(7-(3-methoxyphenyl)-2-azaspiro[3.5]nonan-2-yl)methanone] was tested, and the IC50 was 0.032 µM. Work on `Cc1nn(C)c2cc(CC3CC4(C3)CN(C(=O)[C@H]3C[C@@](C)(O)C3)C4)ccc12` [Example 302, (6-((1,3-Dimethyl-1H-indazol-6-yl)methyl)-2-azaspiro[3.3]heptan-2-yl)((1s,3s)-3-hydroxy-3-methylcyclobutyl)methanone] yielded an IC50 of 0.021 µM. In the case of `Cc1cc(CC2CCC3(CC2)CN(C(=O)[C@H]2C[C@@](C)(O)C2)C3)ccc1F` [Example 399, (7-(4-Fluoro-3-methylbenzyl)-2-azaspiro[3.5]nonan-2-yl)((1s,3s)-3-hydroxy-3-methylcyclobutyl)methanone], the IC50 is reported as 0.019 µM. `C[C@]1(O)C[C@@H](C(=O)N2CC3(CCC(c4ccn5nccc5c4)C3)C2)C1` (mixture of isomers) [Example 97, (rac)-((1s,3s)-3-Hydroxy-3-methylcyclobutyl)(6-(pyrazolo[1,5-a]pyridin-5-yl)-2-azaspiro[3.4]octan-2-yl)methanone] showed an IC50 of 0.654 µM. Compound `Cc1cccc(CC2CCC3(C2)CN(C(=O)[C@H]2C[C@@](C)(O)C2)C3)c1` (mixture of isomers) [Example 174, (rac)-((1s,3s)-3-Hydroxy-3-methylcyclobutyl)(6-(3-methylbenzyl)-2-azaspiro[3.4]octan-2-yl)methanone] has an IC50 of 0.023 µM.
